Laboratory results as given in patent US8729048B2, “Methods and materials for assessing responsiveness to PARP inhibitors and platinating agents” (Mayo Foundation for Medical Education and Research, priority 2011, dated 2014).

Tests used:
Format in all cases: cell-based
[1] = test system: MMEJ activity in PEO1 cells; test: Microhomology mediated end-joining assay (MMEJ), PEO1; settings: 72 hours
From the text: (§1) FIG. 11. PARP inhibition fails to induce microhomology-mediated end-joining (MMEJ). (A) Schematic of the reporter substrate used to assay for MMEJ activity. Cleavage of pDVG94 with EcoRV and AfeI creates a blunt-ended linearized substrate, with identical 6-bp ends. Direct joining by NHEJ will result in maintenance of both repeats, but MMEJ will excise one repeat, introducing a new BstXI site. PCR across recircularized substrate produces a product of 180 bp, which can be cut into 120 and 60 bp fragments if the BstXI site was created. This figure is adapted from a figure provided elsewhere (Verkaik et al., Eur. J. Immunol., 32:701-709 (2002)). (B) and (C) Agarose gel from a representative MMEJ assay. PEO1 (B, lanes 1-10) and PEO4 (C) cells were treated with increasing concentrations of ABT-888 following transfection with linearized pDVG94. The size of the initial PCR product (180 bp) as well as BstXI cleaved products (120 bp and 60 bp) are indicated. As a positive and negative control, a cell line previously documented to undergo MMEJ (Lou et al., J. Biol. Chem., 279:46359-46362 (2004)), M059J (B, lanes 11 and 12), and a MMEJ-negative line, M059J+DNA-PKcs (B, lanes 13 and 14) were used. Images were captured from one gel and cut to create two panels. […]

[2] = test system: MMEJ activity in PEO4 cells; test: Microhomology mediated end-joining assay (MMEJ), PEO4; settings: 72 hours
From the text: as §1

[3] = test system: phospho-H2AX and phospho-DNA-PKcs foci in HCC1937 cells; test: Immunofluorescence / confocal foci in HCC1937 cells
Description: FIG. 15. Upon PARP inhibition, HCC1937 cells form phospho-H2AX foci that colocalize to regions of activated DNA-PK. (A) Quantitation of cells positive for phospho-H2AX foci in HCC1937 and HCC1937/BRCA1 cells, following treatment with 0.2% DMSO, 250 nM DNA-PKi, 20 μM ABT-888 (ABT), ABT-888 and DNA-PKi, 50 μM etoposide (Etop), or 5 Gy ionizing radiation (IR). Cells were exposed to ABT-888 and/or DNA-PKi for 72 hours, etoposide for 1 hour, or allowed to recover 1 hour post-IR. Results are reported as mean±SEM of 3 independent experiments. (B) Confocal microscopy after staining with antibodies to phospho-H2AX (Ser^139) and phospho-DNA PKcs (Thr^2609) as in FIG. 2D. HCC1937 cells are shown on the left, and reconstituted HCC1937/BRCA1 cells on the right.
Immunofluorescence studies were performed as described elsewhere (Segovis et al., J. Immunol., 182:6933-6942 (2009)) with several modifications. […]
Coverslips were then washed three times with PBS and incubated for 1 h with Alexa Fluor 488- and/or 568-conjugated secondary antibody (Invitrogen) diluted 1:1000. […] Phospho-H2AX positive cells (defined as having >10 foci/cell) were counted on a Zeiss Axioplan microscope. […] Quantitation and image processing were performed using the Zeiss Zen software package and Adobe Photoshop CS3.

SMILES: C[C@]1(c2nc3c(C(N)=O)cccc3[nH]2)CCCN1 [ABT-888]
- induction of MMEJ [1]: not detected
- induction of MMEJ [2]: not detected

SMILES: CCN1CCN(CC(=O)Nc2ccc(-c3cccc4c(=O)cc(N5CCOCC5)oc34)c3sc4ccccc4c23)CC1 [AZ 12594248]
- effect on ABT-888 induced colocalization of phospho-Thr2609-DNA-PK and phospho-Ser139-H2AX in foci [3]: inhibited ABT-888 induced colocalization
- effect on formation of H2AX foci ([3]; 250 nM DNA-PKi with 20 μM ABT-888, 72 hours): diminished formation of H2AX foci
